In experiment [1] the test system is memory CD45RO^+ sorted cells. The experiment is described as follows: Co-stimulated expansion of flow-sorted memory CD4 cells with or without rapamycin. In kind it is cell-based, human. To be noted: in rapamycin relative to control culture. The source says:
(§1) To this extent, naïve or memory human CD4 cells were purified by flow sorting, and co-stimulated either with or without rapamycin (results in FIG. 31).

The next experiment relates to naïve human CD4 cells. The experiment can be described thus: Co-stimulated expansion of flow-sorted naïve CD4 cells with or without rapamycin. In kind it is cell-based. As to conditions: in rapamycin relative to control culture.
Excerpt: as §1

SMILES strings stand for the structures.

As to `CO[C@H]1C[C@@H]2CC[C@@H](C)[C@@](O)(O2)C(=O)C(=O)N2CCCC[C@H]2C(=O)O[C@H]([C@H](C)C[C@@H]2CC[C@@H](O)[C@H](OC)C2)CC(=O)[C@H](C)/C=C(\C)[C@@H](O)[C@@H](OC)C(=O)[C@H](C)C[C@H](C)/C=C/C=C/C=C/1C` [rapamycin], the “reduction in CD4+ T cell expansion” value in experiment [1] was around 50%. In addition, the “reduction in CD4 yield” value with naïve human CD4 cells is reported as around 25%.

These data come from patent publication US8075921B2, “Rapamycin-resistant T cells and therapeutic uses thereof” (The United States of America as represented by the …, priority 2001, dated 2011).
